Experimental data as given in patent publication US9657062B2, “Ghrelin analogues” (Zealand Pharma A/S, priority 2012, dated 2017).
Where a SMILES comes first, the peptide text is derived from it. [ ]: non-standard residue; d: D form. The star is where a group is joined. Octanoyl = CCCCCCCC(=O)*; Dap = NC[C@H](N)C(=O)O; Octyl = CCCCCCCC*

How the values were obtained:
[1] = target: T1, human ghrelin receptor (GHSR1a) (Homo sapiens, UniProt Q92847); experiment: Ghrelin receptor functional assay (Ca2+ induction, Fluo-4, FLIPR) in HEK293 cells stably expressing the human ghrelin receptor; format: cell-based; settings: HEK293 cell line stably expressing human GHSR1a
T1 construct: expressed in transfected cells; plasmid pIRESneo2dNGFR
T1 sequence (Q92847 whole entry): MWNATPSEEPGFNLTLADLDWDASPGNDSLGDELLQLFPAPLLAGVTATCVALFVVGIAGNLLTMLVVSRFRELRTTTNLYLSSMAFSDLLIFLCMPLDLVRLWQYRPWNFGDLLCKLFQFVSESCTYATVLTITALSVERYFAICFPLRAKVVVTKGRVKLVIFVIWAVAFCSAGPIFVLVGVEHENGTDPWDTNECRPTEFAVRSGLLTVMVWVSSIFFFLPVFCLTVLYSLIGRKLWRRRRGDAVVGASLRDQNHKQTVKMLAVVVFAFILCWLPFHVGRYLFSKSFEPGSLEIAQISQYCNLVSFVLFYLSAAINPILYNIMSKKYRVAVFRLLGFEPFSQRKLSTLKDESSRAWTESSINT
Source text: To test activation of the ghrelin receptor, stable cell lines expressing the human ghrelin receptor were produced. In brief, HEK293 cells were used for transfection of the cDNA for human ghrelin receptor cloned into the transfection plasmid pIRESneo2dNGFR. […] The DNA encoding the ghrelin receptor was amplified by PCR using primers also encoding terminal restriction sites for subcloning. The ghrelin receptor was subcloned into a mammalian expression vector containing a neomycin (G418) resistance marker. The fidelity of the DNA encoding the receptor was confirmed by DNA sequencing. HEK293 cells were used for transfection of the ghrelin receptor expression plasmid. The cells were grown according to standard protocol in growth medium and transfected with the plasmids using Lipofectamin (Invitrogen) according to the manufacturer's protocol. […]
The plate with test compounds was pre-warmed before starting the measurements. […] The program measures basal level of fluorescence of Fluo-4 for 10 seconds, adds 100 μl of peptide solution to the cells and measures the change in fluorescence as a consequence of the changes in Ca^2+ concentration in the cells. The output used for calculation of activity was selected to be the maximal response (expressed as a ratio to the basal level. EC50 values) and maximal response values were determined based on these values.

[2] = test system: normal chow-fed C57BL/6J male mice; experiment: Effect on food intake in normal mice (HM-2 automated monitoring); format: in vivo, mouse
Protocol: Normal chow-fed C57BL/6J male mice were used. The mice were kept in an automated food- and water-intake monitoring system (HM-2) which allows automated on-line measurements of accumulated food intake (FI) and other parameters. Food intake was monitored by the HM-2 system up to 24 h after dosing. The mice were kept 6 per cage, and each dosing group consisted of 6 animals.
In the initial experimental set-up with ghrelin as test compound, animals were allowed free access to food directly after treatment, and the resulting data for food intake are shown in FIG. 1A herein (vide infra).
In order to further investigate the “duration of action” of ghrelin and the other test compounds a new protocol was defined. In the modified protocol the gate to the food chambers was closed prior to dosing with vehicle or test compound and was re-opened 2 hours thereafter. The resulting data for food intake following dosing with ghrelin or vehicle are summarized in FIG. 1B (vide infra), while the corresponding data for food intake following dosing with each of the of the other four test compounds. (Compound 16, 22, 23 or 43 of the invention) or with vehicle are summarized in FIG. 2A (data for monitoring up to 6 hours after dosing) and FIG. 2B (data for monitoring up to 24 hours after dosing).

CC(C)C[C@H](NC(=O)[C@H](CCCCN)NC(=O)[C@H](C)NC(=O)[C@@H]1CCCN1C(=O)[C@@H]1CCCN1C(=O)[C@H](CCCCN)NC(=O)[C@H](CCCCN)NC(=O)[C@H](CO)NC(=O)[C@H](CCC(=O)O)NC(=O)[C@H](CCCCN)NC(=O)[C@H](CCCNC(=N)N)NC(=O)[C@H](CCC(N)=O)NC(=O)[C@H](CCC(N)=O)NC(=O)[C@H](C)NC(=O)[C@H](CCCCN)NC(=O)[C@H](CCC(N)=O)NC(=O)[C@H](Cc1c[nH]cn1)NC(=O)[C@H](CCC(=O)O)NC(=O)[C@@H]1CCCN1C(=O)[C@H](CO)NC(=O)[C@H](CC(C)C)NC(=O)[C@H](Cc1ccccc1)NC(=O)[C@H](CO)NC(=O)[C@H](CO)NC(=O)CN)C(=O)N[C@@H](CCC(N)=O)C(=O)N1CCC[C@H]1C(=O)N[C@@H](CCCNC(=N)N)C(=O)O [Compound 4, reference compound]
EC50 [1]: > 1000 nM

CCCCCCCC(=O)NC[C@H](NC(=O)[C@H](CO)NC(=O)[C@@H]1CCCN1)C(=O)N[C@@H](Cc1ccccc1)C(=O)N[C@@H](CC(C)C)C(=O)N[C@@H](CO)C(=O)N1CCC[C@H]1C(=O)N[C@@H](CCC(=O)O)C(=O)N[C@@H](Cc1c[nH]cn1)C(=O)N[C@@H](CO)C(=O)N[C@@H](CCCNC(=N)N)C(=O)N[C@H](C(=O)N[C@@H](CO)C(=O)N[C@@H](CO)C(=O)N[C@@H](CCCNC(=N)N)C(=O)N[C@@H](CCCCN)C(=O)N[C@@H](CCC(=O)O)C(=O)N[C@@H](CO)C(=O)N[C@@H](CCCCN)C(=O)N[C@@H](CCCCN)C(=O)N1CCC[C@H]1C(=O)N1CCC[C@H]1C(=O)N[C@@H](C)C(=O)N[C@@H](CCCCN)C(=O)N[C@@H](CC(C)C)C(=O)N[C@@H](CO)C(=O)N1CCC[C@H]1C(=O)N[C@@H](CCCNC(=N)N)C(N)=O)C(C)C [Compound 23] (H-PS[Dap](Octanoyl)FLSPEHSRVSSRKESKKPPAKLSPR-NH2)
Effects on FI in the 0-6 h light period ([2]; 300 nmol/kg s.c., modified protocol (FIG. 2A)): moderate effects | Effects on FI during the dark period ([2]; 300 nmol/kg s.c., modified protocol, 0-24 h monitoring (FIG. 2B)): significant effects

CCCCCCCCOC[C@H](NC(=O)[C@H](CO)NC(=O)[C@@H]1CCCN1)C(=O)N[C@@H](Cc1ccccc1)C(=O)N[C@@H](CC(C)C)C(=O)N[C@@H](CO)C(=O)N1CCC[C@H]1C(=O)N[C@@H](CCC(=O)O)C(=O)N[C@@H](Cc1c[nH]cn1)C(=O)N[C@@H](CCC(N)=O)C(=O)N[C@@H](CCCNC(=N)N)C(=O)N[C@H](C(=O)N[C@@H](CCC(N)=O)C(=O)N[C@@H](CCCNC(=N)N)C(=O)N[C@@H](CCCCN)C(=O)N[C@@H](CCC(=O)O)C(=O)N[C@@H](CO)C(=O)N[C@@H](CCCCN)C(=O)N[C@@H](CCCCN)C(=O)N1CCC[C@H]1C(=O)N1CCC[C@H]1C(=O)N[C@@H](C)C(=O)N[C@@H](CCCCN)C(=O)N[C@@H](CC(C)C)C(=O)N[C@@H](CCC(N)=O)C(=O)N1CCC[C@H]1C(=O)N[C@@H](CCCNC(=N)N)C(N)=O)C(C)C [Compound 38] (H-PSS(Octyl)FLSPEHQRVQRKESKKPPAKLQPR-NH2)
EC50 [1]: 0.33 nM

CCCCCCCCOC[C@H](NC(=O)[C@H](CO)NC(=O)[C@@H]1CCCN1)C(=O)N[C@@H](Cc1ccccc1)C(=O)N[C@@H](CC(C)C)C(=O)N[C@@H](CO)C(=O)N1CCC[C@H]1C(=O)N[C@@H](CCC(=O)O)C(=O)N[C@@H](Cc1c[nH]cn1)C(=O)N[C@@H](CO)C(=O)N[C@@H](CCCNC(=N)N)C(=O)N[C@H](C(=O)N[C@@H](CO)C(=O)N[C@@H](CO)C(=O)N[C@@H](CCCNC(=N)N)C(=O)N[C@@H](CCCCN)C(=O)N[C@@H](CCC(=O)O)C(=O)N[C@@H](CO)C(=O)N[C@@H](CCCCN)C(=O)N[C@@H](CO)C(=O)N1CCC[C@H]1C(=O)N1CCC[C@H]1C(=O)N[C@@H](C)C(=O)N[C@@H](CCCCN)C(=O)N[C@@H](CC(C)C)C(=O)N[C@@H](CO)C(=O)N1CCC[C@H]1C(=O)N[C@@H](CCCNC(=N)N)C(N)=O)C(C)C [Compound 46] (H-PSS(Octyl)FLSPEHSRVSSRKESKSPPAKLSPR-NH2)
Accumulated FI at 6h ([2]; 300 nmol/kg s.c. once, light phase 0-6 h, modified protocol (food access re-opened 2 h after dosing)): 1.68 ± 0.2 g
